Laboratory results published in patent EP1852441B1, “Agents that modulate EPH receptor activity” (The Burnham Institute, priority 2002, dated 2004).

What was measured:
MAP kinase = MAP kinase phosphorylation in HUVE cells (immunoblot); format: cell-based, human; details: non-serum starved HUVE cells
Source text: (§1) Cell lysates were used to immunoprecipitate EphA2 as described above or probed by immunoblotting with anti-phospho-p44/p42 MAPK antibody (Cell Signaling Technology, Beverly, MA) followed by an anti-mouse IgG peroxidase-conjugated antibody (Amersham) and re-probed with an anti-ERK2 antibody (Santa Cruz Biotechnology, Santa Cruz, CA) followed by a secondary anti-rabbit IgG peroxidase-conjugated antibody (Amersham). Erk2 (p42 MAP kinase) is the major phosphorylated form present. EphA2 was immunoprecipitated (IP) and probed by immunoblotting with anti-ghosphotyrosine (PTyr) or anti-EphA2 antibodies.

EphA2 = EphA2 tyrosine phosphorylation and MAP kinase signaling in HUVE cells; format: cell-based, human; details: in the absence of ephrin
Method: Ephin-A1 Fc was cross-linked by preincubation with 0.2 µg/ml anti-human fc antibodies for 30 minutes on ice. After stimulation, the cells were lysed in modified RIPA buffer {Ogawa, K. et al. 2000 Oncogene 19: 6043-6052). Cell lysates were immunoprecipitated with 5 µg anti-EphA2 antibody (Upstate, Lake Placid, NY), separated by SDS polyacrylamide gel electrophoresis and probed by immunobloting with peroxidase-conjugated anti-phosphotyrosine antibody (Transduction Laboratories, San Diego, CA) or anti-EphA2 antibody followed by a secondary anti-mouse IgG peroxidase-conjugated antibody (Amersham).
as §1

endogenous EphA4 = target: T1, endogenous EphA4 (Mus musculus, UniProt Q03137); assay: ephrin-A3 Fc induced EphA4 tyrosine phosphorylation in hippocampal slices (immunoblot); format: cell-based; details: peptide together with ephrin-A3 Fc, micromolar concentrations
T1 construct: tyrosine phosphorylation of endogenous EphA4; from tissue; host or cells: mouse hippocampal slices
T1 sequence (Q03137 20-986): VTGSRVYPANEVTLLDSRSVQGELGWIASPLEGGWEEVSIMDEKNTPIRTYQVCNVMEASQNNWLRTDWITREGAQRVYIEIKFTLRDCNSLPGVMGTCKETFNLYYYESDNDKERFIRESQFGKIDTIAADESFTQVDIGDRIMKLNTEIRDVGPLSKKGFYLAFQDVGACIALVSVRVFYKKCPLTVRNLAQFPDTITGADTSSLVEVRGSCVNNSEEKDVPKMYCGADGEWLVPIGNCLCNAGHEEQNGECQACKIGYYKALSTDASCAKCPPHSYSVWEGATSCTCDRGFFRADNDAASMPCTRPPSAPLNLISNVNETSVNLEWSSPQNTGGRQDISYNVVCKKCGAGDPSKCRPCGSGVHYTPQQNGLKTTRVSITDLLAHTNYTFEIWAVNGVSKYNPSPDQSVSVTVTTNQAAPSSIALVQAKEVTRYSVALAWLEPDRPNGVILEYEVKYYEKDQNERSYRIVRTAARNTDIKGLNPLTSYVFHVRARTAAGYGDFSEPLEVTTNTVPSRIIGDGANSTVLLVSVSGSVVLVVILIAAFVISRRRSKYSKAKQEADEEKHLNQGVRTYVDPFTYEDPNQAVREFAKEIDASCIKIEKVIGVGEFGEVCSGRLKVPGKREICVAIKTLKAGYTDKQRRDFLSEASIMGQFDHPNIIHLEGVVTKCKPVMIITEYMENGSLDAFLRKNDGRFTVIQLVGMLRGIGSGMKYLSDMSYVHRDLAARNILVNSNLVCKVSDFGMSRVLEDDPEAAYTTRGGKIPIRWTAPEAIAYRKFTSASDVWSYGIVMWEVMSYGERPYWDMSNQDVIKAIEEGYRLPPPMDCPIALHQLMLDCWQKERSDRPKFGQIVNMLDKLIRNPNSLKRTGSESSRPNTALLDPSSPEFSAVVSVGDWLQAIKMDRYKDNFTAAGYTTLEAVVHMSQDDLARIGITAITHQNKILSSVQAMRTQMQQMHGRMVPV

neural crest cells [1] = assay: neural crest cell migration assay in trunk explants; format: cell-based, Chick; details: 24 hours, 13 µM KYL peptide, 10 µg/ml EphA4-Fc
Method: (§2) In this example to address whether the EphA4-binding peptides can inhibit endogenous ephrin-EphA4 physiological function, a neural crest cell migration assay (McLennan, R. & Krull, C.E. 2002 Gene Expr 10:295-305) was utilized. […] The migration of neural crest cells was determined by staining for HNK-1 for neural crest cells and ephrin-B1 to label the caudal sclerotome. […] Neural crest cells migrated properly into the rostral sclerotome in explants treated with control Fc.

neural crest cells [2] = assay: Neural crest cell migration assay in trunk explants; format: cell-based; details: 13 µM peptide, 24 hours, chick trunk explants
Method: as §2

For CSCC[C@H](NC(=O)[C@H](CCSC)NC(=O)[C@@H]1CCCN1C(=O)[C@@H](NC(=O)[C@H](CO)NC(=O)[C@H](CC(=O)O)NC(=O)[C@@H]1CCCN1C(=O)[C@H](Cc1ccc(O)cc1)NC(=O)[C@H](C)NC(=O)[C@H](CO)NC(=O)[C@@H](N)Cc1ccc(O)cc1)C(C)C)C(=O)N[C@@H](CO)C(=O)NCC(=O)N[C@@H](CO)C(=O)NCC(=O)N[C@@H](CO)C(=O)N[C@@H](CCCCNC(=O)CCCC[C@@H]1SC[C@@H]2NC(=O)N[C@@H]21)C(=O)O [YSA peptide], the MAP kinase activation (MAP kinase) was “suppresses MAP kinase activation”.
With CSCC[C@H](NC(=O)[C@H](CCSC)NC(=O)[C@@H]1CCCN1C(=O)[C@@H](NC(=O)[C@H](CO)NC(=O)[C@H](CC(=O)O)NC(=O)[C@@H]1CCCN1C(=O)[C@H](Cc1ccc(O)cc1)NC(=O)[C@H](C)NC(=O)[C@H](CO)NC(=O)[C@@H](N)Cc1ccc(O)cc1)C(C)C)C(=O)N[C@@H](CO)C(=O)O [YSA peptide] the “functional effect on EphA2 (tyrosine phosphorylation, suppression of MAP kinase)” value (EphA2) was “agonist for EphA2”.
For KYLPYWPVLSSL, the “ephrin-A3-induced tyrosine phosphorylation of endogenous EphA4” value (endogenous EphA4) was “antagonize”, the “ephrin-A3-induced tyrosine phosphorylation of endogenous EphA4” value (endogenous EphA4; listed as KYL peptide) was “lower concentrations than the APY and VTM peptides” and the “migration of neural crest cells” value (neural crest cells [1]) was “ectopic migration of neural crest cells into the caudal half-selerotome”.
KYLPYWPVLSSL [KYL peptide] was tested, and the “migration of neural crest cells” value (neural crest cells [2]) was “ectopic migration of neural crest cells into the caudal half-selerotome”.
In the case of VTMEAINLAFPG, the “ephrin-A3-induced tyrosine phosphorylation of endogenous EphA4” value (endogenous EphA4) is reported as “antagonize”.
